Source: patent publication US20050112573A1, “Method of detecting toxic substance” (priority 2001, published 2005)

Tested on: yeast genes (level of expressed mRNA)
Assay: DNA chip analysis of expressed mRNA of yeast genes after 2 h culture with a toxic chemical substance
Assay type: cell-based, Saccharomyces cerevisiae S288C
Settings: for The level of expressed mRNA in the presence of chemical substance/ (ratio to absence): transport facilitation protein gene; for The level of expressed mRNA in the presence of chemical substance/: ratio to no chemical; for The level of expressed mRNA in the presence of chemical substance/ (ratio to absence of chemical substance): stress protein genes, DNA chip
How it was run: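 Values are treated-to-control fluorescence ratios from a whole-yeast-genome DNA chip (65° C, over 12 h hybridization) using Cy3/Cy5-labelled cDNA from mRNA. Log-phase S288C cells in YPD at 25° C were exposed 2 h to a toxicant at sublethal, growth-inhibiting concentration.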

sodium dodecylbenzosulfonate [(17)]
The level of expressed mRNA in the presence of chemical substance/in the absence of chemical substance (yeast gene YGR124W): 0.7
The level of expressed mRNA in the presence of chemical substance/The level of expressed mRNA in the absence of chemical substance (yeast gene YGR136W): 1.3
The level of expressed mRNA in the presence of chemical substance/ (ratio to absence) (yeast gene YGR138C): 0.7
The level of expressed mRNA in the presence of chemical substance/ (yeast gene YGR153W): 1.3
The level of expressed mRNA in the presence of chemical substance/in the absence of chemical substance (yeast gene YGR157W): 0.8
The level of expressed mRNA in the presence of chemical substance/The level of expressed mRNA in the absence of chemical substance (yeast gene YGR189C): 2.3
The level of expressed mRNA in the presence of chemical substance/in the absence of chemical substance (yeast gene YGR192C): 1.1
The level of expressed mRNA in the presence of chemical substance/The level of expressed mRNA in the absence of chemical substance (yeast gene YGR213C): 12.8
The level of expressed mRNA in the presence of chemical substance/ (yeast gene YGR223C): 1.1
The level of expressed mRNA in the presence of chemical substance/in the absence of chemical substance (yeast gene YGR244C): 1.9
The level of expressed mRNA in the presence of chemical substance/ (yeast gene YGR247W): 1.0
The level of expressed mRNA in the presence of chemical substance/in the absence of chemical substance (yeast gene YGR254W): 1.3
The level of expressed mRNA in the presence of chemical substance/The level of expressed mRNA in the absence of chemical substance (yeast gene YGR257C): 1.1
The level of expressed mRNA in the presence of chemical substance/ (in its absence), gene YGR287C (yeast gene YGR287C, ratio of DNA chip fluorescence intensity to that without chemical substance): 1.0
The level of expressed mRNA in the presence of chemical substance/ (in its absence), gene YGR288W (yeast gene YGR288W, ratio of DNA chip fluorescence intensity to that without chemical substance): 1.2
The level of expressed mRNA in the presence of chemical substance/ (yeast gene YGR295C): 1.6
The level of expressed mRNA in the presence of chemical substance/ (ratio to absence of chemical substance) (yeast gene YHL028W): 1.6
The level of expressed mRNA in the presence of chemical substance/ (ratio to absence) (yeast gene YHL035C): 1.1
The level of expressed mRNA in the presence of chemical substance/ (ratio to absence) (yeast gene YHL036W): 1.0
The level of expressed mRNA in the presence of chemical substance/ (ratio to absence) (yeast gene YHL040C): 1.4
The level of expressed mRNA in the presence of chemical substance/ (yeast gene YHL044W): 0.8
The level of expressed mRNA in the presence of chemical substance/ (ratio to absence of chemical substance) (yeast gene YHL046C): 0.9
The level of expressed mRNA in the presence of chemical substance/The level of expressed mRNA in the absence of chemical substance (yeast gene YHR004C): 1.4
The level of expressed mRNA in the presence of chemical substance/in the absence of chemical substance (yeast gene YHR018C): 1.9
The level of expressed mRNA in the presence of chemical substance/in the absence of chemical substance (yeast gene YHR043C): 1.4
The level of expressed mRNA in the presence of chemical substance/in the absence of chemical substance (yeast gene YHR044C): 1.3
The level of expressed mRNA in the presence of chemical substance/ (ratio to absence) (yeast gene YHR048W): 0.7
The level of expressed mRNA in the presence of chemical substance/The level of expressed mRNA in the absence of chemical substance (yeast gene YHR071W): 2.6
The level of expressed mRNA in the presence of chemical substance/ (ratio to absence) (yeast gene YHR092C): 0.9
The level of expressed mRNA in the presence of chemical substance/ (ratio to absence) (yeast gene YHR094C): 1.4
The level of expressed mRNA in the presence of chemical substance/in the absence of chemical substance (yeast gene YHR112C): 1.6
The level of expressed mRNA in the presence of chemical substance/ (yeast gene YHR116W): 0.9
The level of expressed mRNA in the presence of chemical substance/The level of expressed mRNA in the absence of chemical substance (yeast gene YHR139C): 1.4
The level of expressed mRNA in the presence of chemical substance/The level of expressed mRNA in the absence of chemical substance (yeast gene YHR142W): 1.3
The level of expressed mRNA in the presence of chemical substance/ (yeast gene YHR145C): 1.3
The level of expressed mRNA in the presence of chemical substance/ (ratio to absence) (yeast gene YHR175W): 1.3
The level of expressed mRNA in the presence of chemical substance/ (in its absence), gene YHR210C (yeast gene YHR210C, ratio of DNA chip fluorescence intensity to that without chemical substance): 1.4
The level of expressed mRNA in the presence of chemical substance/ (in its absence), gene YIL006W (yeast gene YIL006W, ratio of DNA chip fluorescence intensity to that without chemical substance): 0.8
The level of expressed mRNA in the presence of chemical substance/ (ratio to absence of chemical substance) (yeast gene YIL011W): 0.8
The level of expressed mRNA in the presence of chemical substance/ (ratio to absence) (yeast gene YIL022W): 0.8
The level of expressed mRNA in the presence of chemical substance/ (ratio to absence) (yeast gene YIL056W): 1.5
The level of expressed mRNA in the presence of chemical substance/ (yeast gene YIL058W): 1.4
The level of expressed mRNA in the presence of chemical substance/ (yeast gene YIL060W): 1.2
The level of expressed mRNA in the presence of chemical substance/ (yeast gene YIL065C): 2.1
The level of expressed mRNA in the presence of chemical substance/ (yeast gene YIL083C): 0.9
The level of expressed mRNA in the presence of chemical substance/ (ratio to absence) (yeast gene YIL088C): 1.2
The level of expressed mRNA in the presence of chemical substance/ (yeast gene YIL097W): 1.1
The level of expressed mRNA in the presence of chemical substance/The level of expressed mRNA in the absence of chemical substance (yeast gene YIL123W): 1.3
The level of expressed mRNA in the presence of chemical substance/The level of expressed mRNA in the absence of chemical substance (yeast gene YIL140W): 0.7
The level of expressed mRNA in the presence of chemical substance/in the absence of chemical substance (yeast gene YIL160C): 2.4
The level of expressed mRNA in the presence of chemical substance/ (ratio to absence) (yeast gene YIL166C): 1.2
The level of expressed mRNA in the presence of chemical substance/ (ratio to absence) (yeast gene YIL170W): 1.6
The level of expressed mRNA in the presence of chemical substance/in the absence of chemical substance (yeast gene YIR017C): 1.5
The level of expressed mRNA in the presence of chemical substance/in the absence of chemical substance (yeast gene YIR030C): 0.9
The level of expressed mRNA in the presence of chemical substance/ (yeast gene YJL036W): 1.4
The level of expressed mRNA in the presence of chemical substance/in the absence of chemical substance (yeast gene YJL052W): 1.2
The level of expressed mRNA in the presence of chemical substance/ (in its absence), gene YJL070C (yeast gene YJL070C, ratio of DNA chip fluorescence intensity to that without chemical substance): 1.1
The level of expressed mRNA in the presence of chemical substance/The level of expressed mRNA in the absence of chemical substance (yeast gene YJL073W): 1.1
The level of expressed mRNA in the presence of chemical substance/The level of expressed mRNA in the absence of chemical substance (yeast gene YJL089W): 1.2
The level of expressed mRNA in the presence of chemical substance/ (ratio to absence) (yeast gene YJL094C): 2.1
The level of expressed mRNA in the presence of chemical substance/ (ratio to absence), gene YJL096W (yeast gene YJL096W, mitochondria-located protein genes, 2 h culture with chemical): 1.1
The level of expressed mRNA in the presence of chemical substance/The level of expressed mRNA in the absence of chemical substance (yeast gene YJL116C): 1.2
The level of expressed mRNA in the presence of chemical substance/in the absence of chemical substance (yeast gene YJL153C): 6.5
The level of expressed mRNA in the presence of chemical substance/ (ratio to absence of chemical substance) (yeast gene YJL158C): 1.4
The level of expressed mRNA in the presence of chemical substance/ (in its absence), gene YJL167W (yeast gene YJL167W, ratio of DNA chip fluorescence intensity to that without chemical substance): 1.4
The level of expressed mRNA in the presence of chemical substance/ (ratio to absence), gene YJL180C (yeast gene YJL180C, mitochondria-located protein genes, 2 h culture with chemical): 0.9
The level of expressed mRNA in the presence of chemical substance/ (yeast gene YJL185C): 1.0
The level of expressed mRNA in the presence of chemical substance/ (ratio to absence) (yeast gene YJL212C): 0.6
The level of expressed mRNA in the presence of chemical substance/ (yeast gene YJL213W): 2.1
The level of expressed mRNA in the presence of chemical substance/ (in its absence), gene YJL216C (yeast gene YJL216C, ratio of DNA chip fluorescence intensity to that without chemical substance): 1.2
The level of expressed mRNA in the presence of chemical substance/ (ratio to absence) (yeast gene YJL219W): 1.6
The level of expressed mRNA in the presence of chemical substance/The level of expressed mRNA in the absence of chemical substance (yeast gene YJR004C): 0.4
The level of expressed mRNA in the presence of chemical substance/in the absence of chemical substance (yeast gene YJR009C): 1.1
The level of expressed mRNA in the presence of chemical substance/in the absence of chemical substance (yeast gene YJR010W): 1.2
The level of expressed mRNA in the presence of chemical substance/in the absence of chemical substance (yeast gene YJR073C): 2.9
The level of expressed mRNA in the presence of chemical substance/ (yeast gene YJR085C): 1.4
The level of expressed mRNA in the presence of chemical substance/The level of expressed mRNA in the absence of chemical substance (yeast gene YJR086W): 1.4
The level of expressed mRNA in the presence of chemical substance/ (ratio to absence of chemical substance) (yeast gene YJR090C): 1.1
The level of expressed mRNA in the presence of chemical substance/ (ratio to absence) (yeast gene YJR095W): 1.3
The level of expressed mRNA in the presence of chemical substance/ (ratio to absence) (yeast gene YJR106W): 1.2
The level of expressed mRNA in the presence of chemical substance/in the absence of chemical substance (yeast gene YJR130C): 1.1
The level of expressed mRNA in the presence of chemical substance/in the absence of chemical substance (yeast gene YJR149W): 1.1
The level of expressed mRNA in the presence of chemical substance/in the absence of chemical substance (yeast gene YJR155W): 1.3
The level of expressed mRNA in the presence of chemical substance/in the absence of chemical substance (yeast gene YKL001C): 2.7
The level of expressed mRNA in the presence of chemical substance/The level of expressed mRNA in the absence of chemical substance (yeast gene YKL008C): 1.4
The level of expressed mRNA in the presence of chemical substance/The level of expressed mRNA in the absence of chemical substance (yeast gene YKL013C): 1.6
The level of expressed mRNA in the presence of chemical substance/The level of expressed mRNA in the absence of chemical substance (yeast gene YKL039W): 1.2
The level of expressed mRNA in the presence of chemical substance/The level of expressed mRNA in the absence of chemical substance (yeast gene YKL041W): 1.1
The level of expressed mRNA in the presence of chemical substance/The level of expressed mRNA in the absence of chemical substance (yeast gene YKL096W): 0.5
The level of expressed mRNA in the presence of chemical substance/ (yeast gene YKL133C): 1.2
The level of expressed mRNA in the presence of chemical substance/ (ratio to absence) (yeast gene YKL146W): 1.0
The level of expressed mRNA in the presence of chemical substance/ (yeast gene YKL162C): 0.8
The level of expressed mRNA in the presence of chemical substance/ (ratio to absence of chemical substance) (yeast gene YKL164C): 0.8
The level of expressed mRNA in the presence of chemical substance/The level of expressed mRNA in the absence of chemical substance (yeast gene YKL165C): 0.9
The level of expressed mRNA in the presence of chemical substance/ (yeast gene YKL187C): 0.7
